# Data from patent US20070117743A1, “New antitumoral compounds” (priority 2003, published 2007).
# Like-named read-outs stand apart in the source and are kept apart here. Where a SMILES comes first, the peptide text is derived from it. Bridges are numbered along the chain shown (N, C = ends). [ ]: non-standard residue; d: D form. The star is where a group is joined. d(aIle) = CC[C@H](C)[C@@H](N)C(=O)O; d(aThr) = C[C@@H](O)[C@@H](N)C(=O)O; Hexanoyl(5-Me) = CC(C)CCCC(=O)*; Orn = NCCC[C@H](N)C(=O)O; Dhb = C/C=C(\N)C(=O)O
# Key:
# Format in all cases: cell-based, human
# A-549 = test: SRB colorimetric assay of cell growth and viability, A-549; conditions: 48 hours exposure; for GI50: read-out: GI50 A-549; for CC50: read-out: LC50 A-549
# SK-MEL-28 = test: SRB colorimetric assay of cell growth and viability, SK-MEL-28; conditions: 48 hours exposure; for CC50: read-out: LC50 MEL-28
# HT-29 = test: SRB colorimetric assay of cell growth and viability, HT-29; conditions: 48 hours exposure; for GI50: read-out: GI50 HT-29; for CC50: read-out: LC50 HT-29
# LoVo = test: SRB colorimetric assay of cell growth and viability, LoVo; conditions: 48 hours exposure; for CC50: read-out: LC50 LOVO
# LoVo-Dox = test: SRB colorimetric assay of cell growth and viability, LoVo-Dox; conditions: 48 hours exposure; for CC50: read-out: LC50 LOVO-DOX
# How it was run: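 48 h continuous exposure, 10 to 10^−8 μg/mL; 5×10^3 cells/well, 18 h attachment; TCA fix, 0.4% SRB, OD 490 nm. Triplicates; GI, TGI, LC derived.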
# DU-145 = test: SRB colorimetric assay of cell growth and viability, DU-145; conditions: 48 hours exposure
# IGROV-1 = test: SRB colorimetric assay of cell growth and viability, IGROV-1; conditions: 48 hours exposure
# IGROV-ET = test: SRB colorimetric assay of cell growth and viability, IGROV-ET; conditions: 48 hours exposure; for CC50: read-out: LC50 IGROV-ET
# HeLa = test: SRB colorimetric assay of cell growth and viability, HeLa; conditions: 48 hours exposure; for CC50: read-out: LC50 HELA
# HeLa-APL = test: SRB colorimetric assay of cell growth and viability, HeLa-APL; conditions: 48 hours exposure; for CC50: read-out: LC50 HELA-APL
# K-562 = test: SRB colorimetric assay of cell growth and viability, K-562; conditions: 48 hours exposure; for CC50: read-out: LC50 K-562
# PANC-1 = test: SRB colorimetric assay of cell growth and viability, PANC-1; conditions: 48 hours exposure; for CC50: read-out: LC50 PANC-1
# SK-BR-3 = test: SRB colorimetric assay of cell growth and viability, SK-BR-3; conditions: SK-BR-3; 48 hours exposure
# Description: The finality of this assay is to interrupt the growth of a “in vitro” tumor cell culture by means a continued exhibition of the cells to the sample to be testing.
# This form of the assay employs 96 well cell culture microplates of 9 mm diameter (Faircloth, 1988; Mosmann, 1983). Most of the cell lines are obtained from American Type Culture Collection (ATCC) derived from different human cancer types.
# Cells are maintained in RPMI 1640 10% FBS, supplemented with 0.1 g/l penicillin and 0.1 g/l streptomycin sulfate and then incubated at 37° C., 5% CO2 and 98% humidity. For the experiments, cells were harvested from subconfluent cultures using trypsin and resuspended in fresh medium before plating.
# Cells are seeded in 96 well microtiter plates, at 5×10^3 cells per well in aliquots of 195 μL medium, and they are allowed to attach to the plate surface by growing in drug free medium for 18 hours. Afterward, samples are added in aliquots of 5 μL in a ranging from 10 to 10^−8 μg/mL, dissolved in DMSO:EtOH:PBS (0.5:0.5:99). After 48 hours exposure, the antitumor effect are measured by the SRB methodology: cells are fixed by adding 50 μL of cold 50% (wt/vol) trichloroacetic acid (TCA) and incubating for 60 minutes at 4° C. Plates are washed with deionized water and dried. One hundred μL of SRB solution (0.4% wt/vol in 1% acetic acid) is added to each microtiter well and incubated for 10 minutes at room temperature. Unbound SRB is removed by washing with 1% acetic acid. Plates are air dried and bound stain is solubilized with Tris buffer. Optical densities are read on a automated spectrophotometric plate reader at a single wavelength of 490 nm.
# The values for mean+/− SD of data from triplicate wells are calculated. Some parameters for cellular responses can be calculated: GI=growth inhibition, TGI=total growth inhibition (cytostatic effect) and LC=cell killing (cytotoxic effect).
smiles,measurement,setting,value
"C/C=C1\NC(=O)[C@H](Cc2ccccc2)NC(=O)[C@@H](C(C)C)NC(=O)[C@@H]([C@@H](C)CC)NC(=O)[C@H](NC(=O)[C@H](NC(=O)[C@H](CCCN)NC(=O)[C@H]2CCCN2C(=O)[C@H](NC(=O)[C@@H](NC(=O)[C@H](CCC(=O)O)NC(=O)CCCC(C)C)C(C)C)C(C)C)[C@@H](C)CC)[C@@H](C)OC(=O)[C@H](C(C)C)NC1=O [Compound 56, [Glu^12, noD-Val^13]-KF] ({Hexanoyl(5-Me)}-EV[dV][dP][Orn][d(aIle)][d(aThr)][d(aIle)][dV]F[Dhb]V; ester 7-C)",TGI A-549,A-549,7.11E−06 Molar
same,GI50,A-549,168 nM
same,CC50,A-549,≥ 7110 nM
same,GI50,SK-MEL-28,≥ 7110 nM
same,TGI MEL-28,SK-MEL-28,7.11E−06 Molar
same,CC50,SK-MEL-28,≥ 7110 nM
same,TGI HT-29,HT-29,7.11E−06 Molar
same,GI50,HT-29,≥ 7110 nM
same,CC50,HT-29,≥ 7110 nM
same,GI50,LoVo,2220 nM
same,TGI LOVO,LoVo,7.11E−06 Molar
same,CC50,LoVo,≥ 7110 nM
same,GI50,LoVo-Dox,≥ 7110 nM
same,TGI LOVO-DOX,LoVo-Dox,7.11E−06 Molar
same,CC50,LoVo-Dox,≥ 7110 nM
same,GI50,DU-145,1950 nM
same,LC50 (concentration causing 50% net cell kill),DU-145,≥ 7110 nM
same,TGI DU-145,DU-145,7.11E−06 Molar
same,GI50,IGROV-1,2780 nM
same,LC50 (concentration causing 50% net cell killing),IGROV-1,≥ 7110 nM
same,TGI IGROV,IGROV-1,7.11E−06 Molar
same,GI50,IGROV-ET,1390 nM
same,TGI IGROV-ET,IGROV-ET,7.11E−06 Molar
same,CC50,IGROV-ET,≥ 7110 nM
same,GI50,HeLa,370 nM
same,TGI HELA,HeLa,7.11E−06 Molar
same,CC50,HeLa,≥ 7110 nM
same,GI50,HeLa-APL,≥ 7110 nM
same,TGI HELA-APL,HeLa-APL,7.11E−06 Molar
same,CC50,HeLa-APL,≥ 7110 nM
same,GI50,K-562,≥ 7110 nM
same,TGI K-562,K-562,7.11E−06 Molar
same,CC50,K-562,≥ 7110 nM
same,GI50,PANC-1,118 nM
same,TGI PANC-1,PANC-1,7.11E−06 Molar
same,CC50,PANC-1,≥ 7110 nM
"C/C=C1\NC(=O)[C@H](Cc2ccccc2)NC(=O)[C@@H](C(C)C)NC(=O)[C@@H]([C@@H](C)CC)NC(=O)[C@H](NC(=O)[C@H](NC(=O)[C@H](CCCN)NC(=O)[C@H]2CCCN2C(=O)[C@H](NC(=O)[C@@H](NC(=O)[C@H](CCCN)NC(=O)CCCC(C)C)C(C)C)C(C)C)[C@@H](C)CC)[C@@H](C)OC(=O)[C@H](C(C)C)NC1=O [Compound 57, [Orn^12, noD-Val^13]-KF] ({Hexanoyl(5-Me)}-[Orn]V[dV][dP][Orn][d(aIle)][d(aThr)][d(aIle)][dV]F[Dhb]V; ester 7-C)",TGI A-549,A-549; SRB,7.18E−06 Molar
same,GI50,A-549; SRB,≥ 7180 nM
same,CC50,A-549; SRB,≥ 7180 nM
same,GI50,SK-MEL-28,≥ 7180 nM
same,TGI MEL-28,SK-MEL-28,7.18E−06 Molar
same,CC50,SK-MEL-28,≥ 7180 nM
same,TGI HT-29,HT-29; SRB,7.18E−06 Molar
same,GI50,HT-29; SRB,≥ 7180 nM
same,CC50,HT-29; SRB,≥ 7180 nM
same,GI50,LoVo; SRB,≥ 7180 nM
same,TGI LOVO,LoVo; SRB,7.18E−06 Molar
same,CC50,LoVo; SRB,≥ 7180 nM
same,GI50,LoVo-Dox; SRB,≥ 7180 nM
same,TGI LOVO-DOX,LoVo-Dox; SRB,7.18E−06 Molar
same,CC50,LoVo-Dox; SRB,≥ 7180 nM
same,GI50,DU-145,≥ 7180 nM
same,LC50 (concentration causing 50% net cell kill),DU-145,≥ 7180 nM
same,TGI DU-145,DU-145,7.18E−06 Molar
same,GI50,IGROV-1,≥ 7180 nM
same,LC50 (concentration causing 50% net cell killing),IGROV-1,≥ 7180 nM
same,TGI IGROV,IGROV-1,7.18E−06 Molar
same,GI50,IGROV-ET,≥ 7180 nM
same,TGI IGROV-ET,IGROV-ET,7.18E−06 Molar
same,CC50,IGROV-ET,≥ 7180 nM
same,GI50,HeLa; SRB,≥ 7180 nM
same,TGI HELA,HeLa; SRB,7.18E−06 Molar
same,CC50,HeLa; SRB,≥ 7180 nM
same,GI50,HeLa-APL; SRB,≥ 7180 nM
same,TGI HELA-APL,HeLa-APL; SRB,7.18E−06 Molar
same,CC50,HeLa-APL; SRB,≥ 7180 nM
same,GI50,K-562; SRB,≥ 7180 nM
same,TGI K-562,K-562; SRB,7.18E−06 Molar
same,CC50,K-562; SRB,≥ 7180 nM
same,GI50,PANC-1; SRB,3880 nM
same,TGI PANC-1,PANC-1; SRB,7.18E−06 Molar
same,CC50,PANC-1; SRB,≥ 7180 nM
"C/C=C1\NC(=O)[C@H](Cc2ccccc2)NC(=O)[C@@H](C(C)C)NC(=O)[C@@H]([C@@H](C)CC)NC(=O)[C@H](NC(=O)[C@H](NC(=O)[C@H](CCCN)NC(=O)[C@H]2CCCN2C(=O)[C@H](NC(=O)[C@@H](NC(=O)[C@H](CCC(N)=O)NC(=O)[C@H](NC(=O)CCCC(C)C)C(C)C)C(C)C)C(C)C)[C@@H](C)CC)[C@@H](C)OC(=O)[C@H](C(C)C)NC1=O [Compound 119, [Gln^12]-KF] ({Hexanoyl(5-Me)}-[dV]QV[dV][dP][Orn][d(aIle)][d(aThr)][d(aIle)][dV]F[Dhb]V; ester 8-C)",TGI A-549,A-549; A-549,1.99E−06 Molar
same,GI50,A-549; A-549,1990 nM
same,CC50,A-549; A-549,1990 nM
same,GI50,SK-MEL-28; MEL-28,1990 nM
same,TGI MEL-28,SK-MEL-28; MEL-28,1.99E−06 Molar
same,CC50,SK-MEL-28; MEL-28,1990 nM
same,TGI HT-29,HT-29; HT-29,1.35E−06 Molar
same,GI50,HT-29; HT-29,864 nM
same,CC50,HT-29; HT-29,1990 nM
same,GI50,LoVo-Dox; LOVO-DOX,591 nM
same,TGI LOVO-DOX,LoVo-Dox; LOVO-DOX,1.16E−06 Molar
same,CC50,LoVo-Dox; LOVO-DOX,1990 nM
same,GI50,DU-145; DU-145,1990 nM
same,LC50 (concentration causing 50% net cell kill),DU-145; DU-145,1990 nM
same,TGI DU-145,DU-145; DU-145,1.99E−06 Molar
same,GI50,SK-BR-3,258 nM
same,LC50,SK-BR-3,1560 nM
same,TGI SK-BR-3,SK-BR-3,5.34E−07 Molar
same,GI50,IGROV-1; IGROV,651 nM
same,LC50 (concentration causing 50% net cell killing),IGROV-1; IGROV,1740 nM
same,TGI IGROV,IGROV-1; IGROV,1.07E−06 Molar
same,GI50,IGROV-ET; IGROV-ET,764 nM
same,TGI IGROV-ET,IGROV-ET; IGROV-ET,1.37E−06 Molar
same,CC50,IGROV-ET; IGROV-ET,1990 nM
same,GI50,HeLa; HELA,379 nM
same,TGI HELA,HeLa; HELA,6.64E−07 Molar
same,CC50,HeLa; HELA,1990 nM
same,GI50,HeLa-APL; HELA-APL,1990 nM
same,TGI HELA-APL,HeLa-APL; HELA-APL,1.99E−06 Molar
same,CC50,HeLa-APL; HELA-APL,1990 nM
same,GI50,K-562; K-562,1990 nM
same,TGI K-562,K-562; K-562,1.99E−06 Molar
same,CC50,K-562; K-562,1990 nM
same,GI50,PANC-1; PANC-1,1990 nM
same,TGI PANC-1,PANC-1; PANC-1,1.99E−06 Molar
same,CC50,PANC-1; PANC-1,1990 nM
